Assay results taken from publication PMC10458893, “Design of Protegrin-1 Analogs with Improved Antibacterial Selectivity” (Pharmaceutics, 2023).
In brackets after ≈: the same amount, converted by molar mass. Positions of bridges follow the written chain, without caps; N, C: chain ends. Residues, ends and D or L forms follow the SMILES beside them.

Key:
[1] = system: human keratinocyte cell line (HaCaT); assay: Cytotoxicity MTT assay; type: cell-based
Procedure: In order to evaluate the cytotoxicity of the peptides against a human keratinocyte cell line (HaCaT, Cat. No. 300493) (Cell Lines Service, Köln, Germany), the colorimetric 3-(4,5-dimethylthiazol-2-yl)-2,5-diphenyltetrazolium bromide (MTT) dye reduction assay was performed, as described in a previous publication. Wells containing no peptide were used as a 100% survival control. Each peptide was tested in two separate experiments to ensure the reliability of the results.

P. aeruginosa PAO1 = type: cell-based, Pseudomonas aeruginosa; conditions: PAO1, 24 h
Procedure: (§1) The antimicrobial activity of the peptides was determined using two-fold serial dilutions in sterile 96-well flat-bottom polystyrene microplates (Eppendorf, Hamburg, Germany) (Cat. No. 0030730011), as previously described. The following strains of bacteria were used: E. coli ATCC 25922, E. coli ML35p (ATCC collection), E. coli BW 25113 (Keio collection), Pseudomonas aeruginosa PAO1 (ATCC collection), P. aeruginosa ATCC 27853, Klebsiella pneumoniae ATCC 700603, Staphylococcus aureus 209P (ATCC collection), S. aureus ATCC 29213, and Micrococcus luteus B-1314 (VKM collection). Acinetobacter baumannii (strain XDR CI 2675) was provided by the I.M. Sechenov First Moscow State Medical University hospital. After a 24 h incubation period, the metabolic activity of the bacteria was assessed by adding 20 µL of a redox indicator, resazurin (Sigma-Aldrich, St. Louis, MO, USA), at a concentration of 0.1 mg/mL, to the wells. The plate was then incubated for a further two hours. The minimum inhibitory concentration (MIC) was determined as the lowest concentration of the peptide at which no color change in the resazurin indicator was observed. The results were presented as median values, which were determined based on at least three independent experiments carried out in triplicate.

P. aeruginosa ATCC 27853 = type: cell-based, Pseudomonas aeruginosa; conditions: ATCC 27853, 24 h
Procedure: as §1

[2] = system: K. pneumoniae ATCC 700603; type: cell-based, Klebsiella pneumoniae; conditions: ATCC 700603, 24 h
Procedure: as §1

E. coli ATCC 25922 = type: cell-based; conditions: ATCC 25922, 24 h
Procedure: as §1

[3] = system: freshly isolated human erythrocytes (hRBCs); assay: Hemolysis assay (hemoglobin release); type: cell-based
Source text: To assess the hemolytic activity of the compounds, freshly isolated human erythrocytes (hRBCs) were used according to the methodology described in a previous study. Melittin was used as a positive peptide control that induces significant hemolysis. Isotonic phosphate buffer (PBS) served as a negative control, while 0.1% Triton X-100 solution was used as a control for complete hemolysis.

S. aureus ATCC 29213 = type: cell-based, Staphylococcus aureus; conditions: ATCC 29213, 24 h
Procedure: as §1

S. aureus 209P = type: cell-based, Staphylococcus aureus; conditions: 24 h
Procedure: as §1

M. luteus B-1314 = type: cell-based, Micrococcus luteus; conditions: B-1314, 24 h
Procedure: as §1

E. coli BW 25113 = type: cell-based; conditions: two-fold serial dilutions, 24 h incubation, resazurin read-out; median of at least three independent experiments in triplicate
Procedure: as §1

[4] = system: Acinetobacter baumannii (strain XDR CI 2675); type: cell-based; conditions: strain XDR CI 2675; two-fold serial dilutions, 24 h incubation, resazurin read-out; median of at least three independent experiments in triplicate
Procedure: as §1

all the test strains = type: cell-based; conditions: geometric mean over the 10 test strains
Procedure: as §1

E. coli ML35p = type: cell-based; conditions: two-fold serial dilutions, 24 h incubation, resazurin read-out; median of at least three independent experiments in triplicate
Procedure: as §1

SMILES | Cell Viability, % (128 μM) ([1]; 18 h, 128) | MIC, P. aeruginosa PAO1 (P. aeruginosa PAO1) | MIC, P. aeruginosa ATCC 27853 (P. aeruginosa ATCC 27853) | MIC, K. pneumoniae ATCC 700603 [2] | MIC, E. coli ATCC 25922 (E. coli ATCC 25922) | Hemolytic activity, % (64 μM) ([3]; red cells of human, 64) | MIC, S. aureus ATCC 29213 (S. aureus ATCC 29213) | MIC, S. aureus 209P (S. aureus 209P) | MIC, M. luteus B-1314 (M. luteus B-1314) | Cell Viability, % (128 μM) ([1]; 128 μM peptide, HaCaT, MTT assay, 18 h incubation (legend; text says 24 h), mean ± SD of two independent experiments) | Hemolytic activity, % (64 μM) ([3]; 64 μM peptide, 1.5 h incubation, hemoglobin release, fresh hRBCs, 0.1% Triton X-100 = complete hemolysis, mean ± SD of two independent experiments) | MIC, E. coli BW 25113 (E. coli BW 25113) | MIC, A. baumannii [4] | MIC (GM), geometric mean of the peptide's MICs against all the test strains (all the test strains) | MIC, E. coli ML35p (E. coli ML35p)
CC(C)C[C@H](NC(=O)CNC(=O)CNC(=O)[C@@H](N)CCCNC(=N)N)C(=O)N[C@H]1CSSC[C@@H](C(=O)N[C@H](C(=O)NCC(=O)N[C@@H](CCCNC(=N)N)C(N)=O)C(C)C)NC(=O)[C@H](C(C)C)NC(=O)[C@@H]2CSSC[C@H](NC(=O)[C@H](Cc3ccc(O)cc3)NC1=O)C(=O)N[C@@H](CCCNC(=N)N)C(=O)NCC(=O)N[C@@H](CCCNC(=N)N)C(=O)N[C@@H](Cc1ccccc1)C(=O)N2 [Iseganan, reference compound] (H-RGGLCYCRGRFCVCVGR-NH2; disulfide 5-14, 7-12) | 19.5 (±7.18) % | 8 µM (≈ 15.2 µg/mL) | 4 µM (≈ 7.6 µg/mL) | 4 µM (≈ 7.6 µg/mL) | 0.5 µM (≈ 0.95 µg/mL) | 99.6 (±0.54) % | 4 µM (≈ 7.6 µg/mL) | 2 µM (≈ 3.8 µg/mL) | 0.5 µM (≈ 0.95 µg/mL) |  |  |  |  |  | 
CC[C@H](C)[C@H](NC(=O)CN)C(=O)NCC(=O)N[C@@H](C)C(=O)N[C@H](C(=O)N[C@@H](CC(C)C)C(=O)N[C@@H](CCCCN)C(=O)N[C@H](C(=O)N[C@@H](CC(C)C)C(=O)N[C@H](C(=O)N[C@H](C(=O)NCC(=O)N[C@@H](CC(C)C)C(=O)N1CCC[C@H]1C(=O)N[C@@H](C)C(=O)N[C@@H](CC(C)C)C(=O)N[C@H](C(=O)N[C@@H](CO)C(=O)N[C@@H](Cc1c[nH]c2ccccc12)C(=O)N[C@H](C(=O)N[C@@H](CCCCN)C(=O)N[C@@H](CCCNC(=N)N)C(=O)N[C@@H](CCCCN)C(=O)N[C@@H](CCCNC(=N)N)C(=O)N[C@@H](CCC(N)=O)C(=O)N[C@@H](CCC(N)=O)C(N)=O)[C@@H](C)CC)[C@@H](C)CC)[C@@H](C)O)[C@@H](C)O)C(C)C)C(C)C [Melittin, reference compound] |  |  |  |  |  |  |  |  |  | 4.1 (± 4.07) % | 96.0 (±7.12) % |  |  |  | 
CC(C)C[C@H](NC(=O)[C@H](CCCNC(=N)N)NC(=O)CNC(=O)CNC(=O)[C@@H](N)CCCNC(=N)N)C(=O)N[C@H]1CSSC[C@@H](C(=O)N[C@H](C(=O)NCC(=O)N[C@@H](CCCNC(=N)N)C(=O)O)C(C)C)NC(=O)[C@H](C(C)C)NC(=O)[C@@H]2CSSC[C@H](NC(=O)[C@H](Cc3ccc(O)cc3)NC1=O)C(=O)N[C@@H](CCCNC(=N)N)C(=O)N[C@@H](CCCNC(=N)N)C(=O)N[C@@H](CCCNC(=N)N)C(=O)N[C@@H](Cc1ccccc1)C(=O)N2 [PG-1, Protegrin-1] (H-RGGRLCYCRRRFCVCVGR-OH; disulfide 6-15, 8-13; N-terminus and C-terminus assumed) | 6.1 (±2.07) % | 0.5 µM (≈ 1.08 µg/mL) | 0.25 µM (≈ 0.539 µg/mL) | 1 µM (≈ 2.16 µg/mL) | 0.5 µM (≈ 1.08 µg/mL) | 96.3 (±10.72) % | 1 µM (≈ 2.16 µg/mL) | 0.5 µM (≈ 1.08 µg/mL) | 0.25 µM (≈ 0.539 µg/mL) |  |  | 0.125 µM (≈ 0.27 µg/mL) | 0.25 µM (≈ 0.539 µg/mL) | 0.4 µM | 0.25 µM (≈ 0.539 µg/mL)
